In US9995734B2, “Human T cell line assay for evaluating the immunologic identity of glatiramer acetate preparations” (Mylan Inc., priority 2013, dated 2018):
Marks after values point to notes of the source that are not given here.

Key:
Donor 3 GMA T-Cell Lines = experiment: ATP proliferation assay (CellTiter Glo), Donor 3 GMA T-cell lines, incl. reactivity to non-canonical GA peptides; format: cell-based, human
Donor 3 COP T-Cell Lines = experiment: ATP proliferation assay (CellTiter Glo), Donor 3 COP T-cell lines, incl. reactivity to non-canonical GA peptides; format: cell-based, human; conditions: for ATP proliferation assay: 10 μg/mL, Day 14

glatiramer acetate [COP]
response in proliferation assay (Donor 3 GMA T-Cell Lines; 165-B5G, 165-D8G, 165-E7G, 165-F5G, Day 56, 0, 1, 5, 10, 100 μg/mL, GMA and COP responses comparable): responded well | Proliferation (luminescent ATP assay), Mean (Donor 3 GMA T-Cell Lines; T-cell line 165-05G, 1 μg/mL antigen, Day 50 of culturing, No Antigen Value 2149): 6791 RLU | Proliferation (luminescent ATP assay), Mean (Donor 3 GMA T-Cell Lines; T-cell line 165-05G, 3 μg/mL antigen, Day 50 of culturing, No Antigen Value 2149): 42584 RLU | Proliferation (luminescent ATP assay), Mean (Donor 3 GMA T-Cell Lines; T-cell line 165-05G, 10 μg/mL antigen, Day 50 of culturing, No Antigen Value 2149): 56893 RLU | Proliferation (luminescent ATP assay), Mean (Donor 3 GMA T-Cell Lines; T-cell line 165-05G, 30 μg/mL antigen, Day 50 of culturing, No Antigen Value 2149): 55001 RLU | Mean, ATP proliferation assay (Donor 3 GMA T-Cell Lines; T-cell line 165-B2G, 1 μg/mL, Day 40): 3779 | Mean, ATP proliferation assay (Donor 3 GMA T-Cell Lines; T-cell line 165-B2G, 3 μg/mL, Day 40): 11983 | Mean, ATP proliferation assay (Donor 3 GMA T-Cell Lines; T-cell line 165-B2G, line COP 10 μg/mL, footnote: well contained 3 μg/mL COP, Day 40): 10980* | Proliferation (luminescent ATP assay), Mean (Donor 3 GMA T-Cell Lines; T-cell line 165-B5G, 1 μg/mL antigen, Day 81 of culturing, No Antigen Value 2432): 6275 RLU | Mean, ATP proliferation assay (Donor 3 GMA T-Cell Lines; T-cell line 165-B5G, 1 μg/mL, Day 40): 3672 | Proliferation (luminescent ATP assay), Mean (Donor 3 GMA T-Cell Lines; T-cell line 165-B5G, 3 μg/mL antigen, Day 81 of culturing, No Antigen Value 2432): 7499 RLU | Mean, ATP proliferation assay (Donor 3 GMA T-Cell Lines; T-cell line 165-B5G, 3 μg/mL, Day 40): 3673 | Proliferation (luminescent ATP assay), Mean (Donor 3 GMA T-Cell Lines; T-cell line 165-B5G, 10 μg/mL antigen, Day 81 of culturing, No Antigen Value 2432): 10914 RLU | Mean, ATP proliferation assay (Donor 3 GMA T-Cell Lines; T-cell line 165-B5G, 10 μg/mL, Day 40): 14282 | Proliferation (luminescent ATP assay), Mean (Donor 3 GMA T-Cell Lines; T-cell line 165-B5G, 30 μg/mL antigen, Day 81 of culturing, No Antigen Value 2432): 13974 RLU | Mean, ATP proliferation assay (Donor 3 GMA T-Cell Lines; T-cell line 165-C4G, 1 μg/mL, Day 40): 3143 | Mean, ATP proliferation assay (Donor 3 GMA T-Cell Lines; T-cell line 165-C4G, 3 μg/mL, Day 40): 3959 | Mean, ATP proliferation assay (Donor 3 GMA T-Cell Lines; T-cell line 165-C4G, line COP 10 μg/mL, footnote: well contained 3 μg/mL COP, Day 40): 3717* | Mean, ATP proliferation assay (Donor 3 GMA T-Cell Lines; T-cell line 165-C5G, 1 μg/mL, Day 40): 12667 | Mean, ATP proliferation assay (Donor 3 GMA T-Cell Lines; T-cell line 165-C5G, 3 μg/mL, Day 40): 24835 | Mean, ATP proliferation assay (Donor 3 GMA T-Cell Lines; T-cell line 165-C5G, 10 μg/mL, Day 40): 47537 | Mean, ATP proliferation assay (Donor 3 GMA T-Cell Lines; T-cell line 165-C8G, 1 μg/mL, tested with the Donor 3 COP lines of Table 25): 400 RLU | Mean, ATP proliferation assay (Donor 3 GMA T-Cell Lines; T-cell line 165-C8G, 3 μg/mL, tested with the Donor 3 COP lines of Table 25): 4821 RLU | Mean, ATP proliferation assay (Donor 3 GMA T-Cell Lines; T-cell line 165-C8G, 10 μg/mL, tested with the Donor 3 COP lines of Table 25): 22961 RLU | Mean, ATP proliferation assay (Donor 3 GMA T-Cell Lines; T-cell line 165-D8G, 1 μg/mL, Day 40): 8088 | Mean, ATP proliferation assay (Donor 3 GMA T-Cell Lines; T-cell line 165-D8G, 3 μg/mL, Day 40): 8722 | Mean, ATP proliferation assay (Donor 3 GMA T-Cell Lines; T-cell line 165-D8G, 10 μg/mL, Day 40): 28872 | Proliferation (luminescent ATP assay), Mean (Donor 3 GMA T-Cell Lines; T-cell line 165-E7G, 1 μg/mL antigen, Day 81 of culturing, No Antigen Value 2145): 4217 RLU | Mean, ATP proliferation assay (Donor 3 GMA T-Cell Lines; T-cell line 165-E7G, 1 μg/mL, Day 40): 3794 | Proliferation (luminescent ATP assay), Mean (Donor 3 GMA T-Cell Lines; T-cell line 165-E7G, 3 μg/mL antigen, Day 81 of culturing, No Antigen Value 2145): 5366 RLU | Mean, ATP proliferation assay (Donor 3 GMA T-Cell Lines; T-cell line 165-E7G, 3 μg/mL, Day 40): 4147 | Proliferation (luminescent ATP assay), Mean (Donor 3 GMA T-Cell Lines; T-cell line 165-E7G, 10 μg/mL antigen, Day 81 of culturing, No Antigen Value 2145): 7619 RLU | Mean, ATP proliferation assay (Donor 3 GMA T-Cell Lines; T-cell line 165-E7G, 10 μg/mL, Day 40): 12565 | Proliferation (luminescent ATP assay), Mean (Donor 3 GMA T-Cell Lines; T-cell line 165-E7G, 30 μg/mL antigen, Day 81 of culturing, No Antigen Value 2145): 7161 RLU | Proliferation (luminescent ATP assay), Mean (Donor 3 GMA T-Cell Lines; T-cell line 165-E9G, 1 μg/mL antigen, Day 50 of culturing, No Antigen Value 1742): 1999 RLU | Mean, ATP proliferation assay (Donor 3 GMA T-Cell Lines; T-cell line 165-E9G, 1 μg/mL, Day 40): 3216 | Proliferation (luminescent ATP assay), Mean (Donor 3 GMA T-Cell Lines; T-cell line 165-E9G, 3 μg/mL antigen, Day 50 of culturing, No Antigen Value 1742): 5538 RLU | Mean, ATP proliferation assay (Donor 3 GMA T-Cell Lines; T-cell line 165-E9G, 3 μg/mL, Day 40): 5584 | Mean, ATP proliferation assay (Donor 3 GMA T-Cell Lines; T-cell line 165-E9G, 10 μg/mL, Day 40): 25454 | Proliferation (luminescent ATP assay), Mean (Donor 3 GMA T-Cell Lines; T-cell line 165-E9G, 30 μg/mL antigen, Day 50 of culturing, No Antigen Value 1742): 38286 RLU | Proliferation (luminescent ATP assay), Mean (Donor 3 GMA T-Cell Lines; T-cell line 165-E9G, 10 μpg/mL antigen, Day 50 of culturing, No Antigen Value 1742): 38813 RLU | Mean, ATP proliferation assay (Donor 3 GMA T-Cell Lines; T-cell line 165-F2G, 1 μg/mL, Day 40): 1700 | Mean, ATP proliferation assay (Donor 3 GMA T-Cell Lines; T-cell line 165-F2G, 3 μg/mL, Day 40): 1332 | Mean, ATP proliferation assay (Donor 3 GMA T-Cell Lines; T-cell line 165-F2G, 10 μg/mL, Day 40): 1554 | Mean, ATP proliferation assay (Donor 3 GMA T-Cell Lines; T-cell line 165-F5G, 1 μg/mL, Day 40): 4332 | Mean, ATP proliferation assay (Donor 3 GMA T-Cell Lines; T-cell line 165-F5G, 3 μg/mL, Day 40): 6099 | Mean, ATP proliferation assay (Donor 3 GMA T-Cell Lines; T-cell line 165-F5G, 10 μg/mL, Day 40): 19498 | Mean, ATP proliferation assay (Donor 3 GMA T-Cell Lines; T-cell line 165-F8G, 1 μg/mL, Day 40): 3690 | Mean, ATP proliferation assay (Donor 3 GMA T-Cell Lines; T-cell line 165-F8G, 3 μg/mL, Day 40): 3184 | Mean, ATP proliferation assay (Donor 3 GMA T-Cell Lines; T-cell line 165-F8G, 10 μg/mL, Day 40): 10663 | Proliferation (luminescent ATP assay), Mean (Donor 3 GMA T-Cell Lines; T-cell line 165-F10G, 1 μg/mL antigen, Day 50 of culturing, No Antigen Value 3752): 6350 RLU | Mean, ATP proliferation assay (Donor 3 GMA T-Cell Lines; T-cell line 165-F10G, 1 μg/mL, Day 40): 8427 | Proliferation (luminescent ATP assay), Mean (Donor 3 GMA T-Cell Lines; T-cell line 165-F10G, 3 μg/mL antigen, Day 50 of culturing, No Antigen Value 3752): 40495 RLU | Proliferation (luminescent ATP assay), Mean (Donor 3 GMA T-Cell Lines; T-cell line 165-F10G, 10 μg/mL antigen, Day 50 of culturing, No Antigen Value 3752): 58726 RLU | Mean, ATP proliferation assay (Donor 3 GMA T-Cell Lines; T-cell line 165-F10G, 10 μg/mL, Day 40): 29986 | Proliferation (luminescent ATP assay), Mean (Donor 3 GMA T-Cell Lines; T-cell line 165-F10G, 30 μg/mL antigen, Day 50 of culturing, No Antigen Value 3752): 60488 RLU | Mean, ATP proliferation assay (Donor 3 GMA T-Cell Lines; T-cell line 165-F10G, line COP 3 μg/mL, footnote: well contained 10 μg/mL COP, Day 40): 31303** | Proliferation (luminescent ATP assay), Mean (Donor 3 GMA T-Cell Lines; T-cell line 165-H11G, 1 μg/mL antigen, Day 50 of culturing, No Antigen Value 1485): 8610 RLU | Mean, ATP proliferation assay (Donor 3 GMA T-Cell Lines; T-cell line 165-H11G, 1 μg/mL, Day 40): 9102 | Proliferation (luminescent ATP assay), Mean (Donor 3 GMA T-Cell Lines; T-cell line 165-H11G, 3 μg/mL antigen, Day 50 of culturing, No Antigen Value 1485): 37551 RLU | Mean, ATP proliferation assay (Donor 3 GMA T-Cell Lines; T-cell line 165-H11G, 3 μg/mL, Day 40): 15637 | Proliferation (luminescent ATP assay), Mean (Donor 3 GMA T-Cell Lines; T-cell line 165-H11G, 10 μg/mL antigen, Day 50 of culturing, No Antigen Value 1485): 50044 RLU | Mean, ATP proliferation assay (Donor 3 GMA T-Cell Lines; T-cell line 165-H11G, 10 μg/mL, Day 40): 43786 | Proliferation (luminescent ATP assay), Mean (Donor 3 GMA T-Cell Lines; T-cell line 165-H11G, 30 μg/mL antigen, Day 50 of culturing, No Antigen Value 1485): 32898 RLU | responsiveness in proliferation assay (Donor 3 GMA T-Cell Lines; all 8 Donor 3 GMA cell lines tested, Day 32, 10 μg/mL (Table 19)): responsive | responsiveness in proliferation assay (Donor 3 GMA T-Cell Lines; eleven of the 12 cell lines (all but F2G), Day 40, 1, 3 or 10 μg/mL (Table 21)): responsive | ratio of proliferation after stimulation with COP to proliferation in response to the APC control (Donor 3 COP T-Cell Lines): greater than 3.0 | ATP proliferation assay (Donor 3 COP T-Cell Lines; 165-B6C, control 14966): 77564 RLU | ATP proliferation assay (Donor 3 COP T-Cell Lines; 165-B10C, control 10604): 54779 RLU | ATP proliferation assay (Donor 3 COP T-Cell Lines; 165-C4C, control 23510): 108089 RLU | ATP proliferation assay (Donor 3 COP T-Cell Lines; 165-C7C, control 12707): 63491 RLU | ATP proliferation assay (Donor 3 COP T-Cell Lines; 165-C9C, control 22840): 113199 RLU | response in ATP proliferation assay (Donor 3 COP T-Cell Lines; 165-D2C, 165-C7C, 165-C4C, Day 39, three concentrations (Table 24)): responded comparably | ATP proliferation assay (Donor 3 COP T-Cell Lines; 165-D2C, control 12767): 54895 RLU | ATP proliferation assay (Donor 3 COP T-Cell Lines; 165-D3C, control 18380): 119241 RLU
